Patent publication US10457639B2, “Fluorescent regulators of RASSF1A expression and human cancer cell proliferation” (GEORGETOWN UNIVERSITY, priority 2008, dated 2019)

What was measured:
PC3 cells = test: Cell growth assay, trypan blue dye exclusion count; assay type: cell-based
Procedure: Cell Line and Cell Growth Assay. Human prostate cancer cell line PC-3 was procured from the American Type Cell Culture Collection (Manassas, Va.). Cells were grown in IMEM without phenol red (Invitrogen, Carlsbad, Calif.) with 10% fetal bovine serum, 2 mM glutamine, 100 U/mL penicillin G sodium, and 100 μg/mL streptomycin sulfate (Sigma, St. Louis, Mo.) in the presence of 5% CO2 at 37° C. For the cell growth experiment, PC-3 cells were seeded in 6-well plates in triplicate with an initial density of 2×10^3 cells per well. Twenty-four hours after seeding, the attached cells were treated with vehicle (DMSO) or 1, 5, 15, 30 and 60 μM compound. After another twenty-four hours, the cells were washed with 1×PBS, trypsinized and re-suspended in complete growth medium. Trypan blue (0.4%) was added to the cell suspension and both live and dead cells were counted using a hemocytometer.
Compounds 6-10 were screened for growth inhibition in PC-3 human prostate cancer cells using previously reported methods (Table 1; Sinha et al. The Prostate. 2006, 66, 1257-1265). […] This was unexpected, since the methyl moiety of mahanine is in the 3-position. Compound 9, with its GI50 value near that of the compound 6 series (compounds 6, 6a, 8) and a deprotected hydroxyl group in the 2-position, implies that whatever hindrance is imposed by a methyl in the 3-position can be partially overcome if steric bulk at the 2-position is reduced. Indeed, looking at the structure of mahanine, the restraint of the ether cycle may provide enough reduction of apparent bulk at the 2-position to moderate its methyl in the 3-position. Additionally, the ether ring system puts the equivalent of a methyl group in the 1-position, which could also be aiding in the low μM activity of mahanine, if the relatively lower values for the compound 6 series are any indication. Moreover, analyzing the structure of compound 10 based on the same criteria, the double-bonded carbon of the ether cycle in the 3-position along with bulk off the 2-position might explain its lesser growth inhibition when compared to mahanine, while the methyl in the 1-position still gives it better activity than compounds 7 and 7a.

[1] = tested on: DNA methyltransferase (DNMT); test: DNA methyltransferase activity assay (EpiQuik kit, nuclear extracts of treated PC-3 cells); assay type: cell-based, human; settings: 72 hours, 5 μM (FIG. 7 legend; method says 2 μM)
Procedure: Black bars: PC-3 cells were treated 72 hours with either mahanine or compound 6a at 5 μM or compound 6, 7, 7a, 8, or 9 at 15 μM and then assayed for DNMT activity using the DNMT activity kit from Epigentek. Data are mean of three independent experiments ±SEM. Grey bars: Densitometry from RT-PCR blot where the amount of RASSF1A mRNA re-expressed by mahanine treatment is normalized to 100%.
DNA methyltransferase activity assay. PC-3 cells were plated in complete growth media, treated with either mahanine or compound 6a at 2 μM or compound 6, 7, 7a, 8, 9, 10 at 15 μM for 3 days and then harvested. Nuclear extracts were prepared according to manufacturer's protocol (Nuclear extraction kit, Epigentek). DNMT activity was measured using an EpiQuik DNA methyltransferase activity assay kit (Epigentek). Results were expressed as percent DNMT activity compared to the DMSO control as 100%.
The levels of DNMT activity in treated versus untreated prostate cancer cells were measured using a DNMT assay kit from Epigentek. […] These reduced DNMT activities correlate with the pattern of RASSF1A induction described above (FIG. 7, grey bars). The data imply that inhibition of DNMT prevents hypermethylation of the RASSF1A promoter region and consequently restores RASSF1A.

wild-type Balb/c mice = test: Acute oral toxicity up-and-down procedure; assay type: in vivo
Procedure: Animals. Balb/c mice and athymic Balb/c nude mice were purchased from the National Cancer Institute (NCI). Animals were housed 4-6 per cage with microisolater tops and provided food (Furina mice chow) and water ad libitum. The light cycle was regulated automatically (12 hours light/dark cycle) and temperature was maintained at 23±1° C. All animals were allowed to acclimate to this environment for one week prior to experimental manipulations. The Georgetown University Animal Care and Use Committee approved all animal studies in accordance with the guidelines adopted by the National Institute of Health.
This provided an ample therapeutic index of >55 at a starting efficacy dose of 10 mg/kg. Athymic Balb/c nude mice with human prostate tumor xenografts were dosed via intraperitoneal injection with 10 mg/kg of compound 6a once a day every other day for 25 days. Control mice were dosed with vehicle alone. Compound 6a reduced tumor volume by roughly 40% compared to control over 25 days (FIG. 8).

[2] = tested on: human prostate tumor xenografts (PC-3); test: PC-3 human prostate xenograft study; assay type: in vivo, mouse; settings: athymic Balb/c nude mice, 10 mg/kg IP every other day, over 25 days
Procedure: Male athymic Balb/c nude mice were injected with PC-3 cells and the resulting tumors allowed to grow for a week before dosing IP once a day every other day with 10 mg/kg compound 6a or DMSO control in 1:1 PEG/PBS. Data are presented as the mean±SEM (n=4).
Cell Culture for Xenograft. PC-3 cell line (ATCC, Manassas, Va.) was cultured in RPMI-1640 with L-glutamine (Mediatech Inc., Herdon, Va.) containing 5% fetal bovine serum (FBS), 2.5 mM L-glutamine at 37° C. with 5% CO2.
Xenograft Study. Male athymic Balb/c nude mice (18-22 g) were injected with 3×106 (0.3 mL) of the human prostate cancer cells (PC-3). The human prostate cancer cells were injected in the subcutaneous tissue of the right axillary region of the mice. One week after the injection, the mice were randomly sorted into two groups with four mice per group. A stock solution of compound 6a was obtained by dissolving 1 mg of compound in 1 μl DMSO. The stock was added to polyethylene glycol 400 (PEG) (Hampton) and PBS in a 1:1 ratio. The test concentrations were obtained by diluting with PEG/PBS. The tumor-bearing mice received an intraperitoneal injection (IP) with either 10 mg/kg of 6a or vehicle control once every other day for 4 weeks. At the same time, the tumor size of each mouse was measured by caliper and calculated by the formula: Length×width×height/2. […]

With `COc1ccc2c(c1)[nH]c1c(C)c(OS(=O)(=O)c3cccc4c(N(C)C)cccc34)ccc12` [Compound 6a, 7-Methoxy-1-methyl-9H-carbazol-2-yl 5-(dimethylamino)naphthalene-1-sulfonate] the “cytotoxicity compared to mahanine” value (PC3 cells) was “less cytotoxic than mahanine”, the GI50 (PC3 cells; Homo sapiens, PC-3, concentration for 50% growth inhibition in PC3 cells, 24 hours of treatment, mean ± SEM of three observations, read-out: GI50) was 1500 ± 110 nM and the “increase in activity compared to mahanine in inhibition of growth of prostate cancer cells” value (PC3 cells; refers to Table 1) was 5 fold. The “DNMT activity versus DMSO control” value [1] was “most potent inhibition”, the therapeutic index (wild-type Balb/c mice; 550 mg/kg without toxicity versus starting efficacy dose of 10 mg/kg) was > 55 and the acute oral toxicity (wild-type Balb/c mice; wild-type Balb/c mice dosed up to 550 mg/kg, oral) was “no toxicity was observed”. For the same molecule, the “reduction of tumor volume compared to control” value [2] was “roughly 40%”.
